Structures can show the parent of a compound that is named as a salt.
Settings: instrument: DT, single field, calibrated with Agilent tune mix (Agilent)

Row | collision cross section (N2) ([M-H]-) [Å²] | collision cross section (N2) ([M+H]+) [Å²] | Structure (SMILES) | further results
1 | 207.35 | – | Nc1nc(=O)c2ncn([C@@H]3O[C@H](COP(=O)(O)OP(=O)(O)O[C@H]4O[C@H](CO)[C@@H](O)[C@H](O)[C@@H]4O)[C@@H](O)[C@H]3O)c2[nH]1 [Guanosine diphosphate mannose] | collision cross section (N2) ([M+Na]+): 220.9 Å²
2 | 203.91 | – | CC(=O)[C@H]1CC[C@H]2[C@@H]3CC=C4C[C@@H](OS(=O)(=O)O)CC[C@]4(C)[C@H]3CC[C@]12C [pregnenolone sulfate] | –
3 | 160.3 | 162.4 | Cc1ncc(C[n+]2csc(CCO)c2C)c(N)n1 [Thiamine] | –
4 | 139.75 | 142.3 | CC(=O)NCCCC[C@H](N)C(=O)O [N6-Acetyl-L-lysine] | –
5 | – | 132.1 | Cn1cc(C(N)=O)ccc1=O [N1-Methyl-2-pyridone-5-carboxamide] | –
6 | 197.93 | – | CCCCCCCCCCCCCCCCCCCCCCCC(=O)O [Tetracosanoic acid] | –
7 | 141.13 | – | CCCCC/C=C/C(=O)O [trans-2-Octenoic acid] | –
8 | 132.25 | – | O=C(O)C1(O)C[C@@H](O)C(O)[C@H](O)C1 (stereo partly specified) [Quinate] | collision cross section (N2) ([M+Na]+): 150.9 Å²
9 | – | 124 | O=C([O-])c1cccnc1 [Nicotinate] | –
10 | 290.65 | 289.9 | CCCCCCCCCCCCCC(=O)SCCNC(=O)CCNC(=O)C(O)C(C)(C)COP(=O)(O)OP(=O)(O)OC[C@H]1O[C@@H](n2cnc3c(N)ncnc32)[C@H](O)[C@@H]1OP(=O)(O)O (stereo partly specified) [Myristoyl-coenzyme A] | –
11 | 198.85 | – | C[C@H](CCC(=O)NCC(=O)O)[C@H]1CC[C@H]2[C@@H]3[C@H](O)C[C@@H]4C[C@H](O)CC[C@]4(C)[C@H]3CC[C@]12C [Glycochenodeoxycholate] | collision cross section (N2) ([M+Na]+): 203.3 Å²
12 | 163.36 | – | CCCCCCCCCCCCCCCC=O [Palmitaldehyde] | –
13 | 147.23 | – | O=C(O)CNC(=O)Cc1ccccc1 [Phenylacetylglycine] | –
14 | 128.61 | – | OC1C(O)C(O)C(O)C(O)C1O (stereo unspecified) [myo-Inositol] | collision cross section (N2) ([M+Na]+): 148.2 Å²
15 | 124.3 | 129.7 | COc1cc(C=O)ccc1O [Vanillin] | –
16 | – | 191.5 | Nc1nc(=O)c2ncn([C@@H]3O[C@H](COP(=O)(O)OP(=O)(O)O)[C@@H](O)[C@H]3O)c2[nH]1 [GDP] | –
17 | 153.53 | 154.3 | COc1ccc2[nH]cc(CCNC(C)=O)c2c1 [Melatonin] | –
18 | 170.63 | 164.3 | C[C@]12CC[C@@H]3c4ccc(O)cc4CC[C@H]3[C@@H]1CCC2=O [Estrone] | –
19 | – | 155.5 | C[N+](C)(C)CCOP(=O)([O-])OC[C@H](O)CO [Glycerophosphocholine] | –
20 | 173.07 | 170.7 | CC/C=C\C/C=C\C/C=C\CCCCCCCC(=O)O [alpha-Linolenic acid] | –

Second part, the compound before the results:

Row | Structure (SMILES) | collision cross section (N2) ([M-H]-) [Å²] | collision cross section (N2) ([M+H]+) [Å²] | further results
21 | Nc1ncnc2c1ncn2[C@H]1C[C@H](O)[C@@H](COP(=O)(O)O)O1 [2'-Deoxyadenosine 5'-monophosphate] | – | 168.1 | –
22 | OC[C@H]1OC(O)[C@H](O)[C@H](O)[C@@H]1O (stereo partly drawn) [D-Allose] | – | – | collision cross section (N2) ([M+Na]+): 143.1 Å²
23 | C[C@H](O)[C@H](O)C1=Nc2c([nH]c(N)nc2=O)NC1 [7,8-Dihydrobiopterin] | – | 154.1 | –
24 | CC1=C(/C=C/C(C)=C\C=C\C(C)=C\C(=O)O)C(C)(C)CCC1 [9-cis-Retinoic acid] | 200.01 | – | collision cross section (N2) ([M+H-H2O]+): 169.6 Å²
25 | CNc1nc(=O)c2ncn([C@@H]3O[C@H](CO)[C@@H](O)[C@H]3O)c2[nH]1 [2-Methylguanosine] | – | – | collision cross section (N2) ([M+Na-2H]-): 166.02 Å²; collision cross section (N2) ([M+Na]+): 178.4 Å²
26 | CC(C)=CCOP(=O)(O)OP(=O)(O)O [Dimethylallyl pyrophosphate] | 143.1 | – | –
27 | Nc1ccn([C@@H]2O[C@H](COP(=O)(O)O)[C@@H](O)[C@H]2O)c(=O)n1 [Cytidine 5'-monophosphate] | – | 166.3 | –
28 | CCCC(=O)SCCNC(=O)CCNC(=O)[C@H](O)C(C)(C)COP(=O)(O)OP(=O)(O)OC[C@H]1O[C@@H](n2cnc3c(N)ncnc32)[C@H](O)[C@@H]1OP(=O)(O)O [Butyryl-CoA] | – | 252.9 | –
29 | CC1=C(/C=C/C(C)=C\C=C\C(C)=C\C=O)C(C)(C)CCC1 [9-cis-Retinal] | – | 170.1 | –
30 | OC[C@H]1O[C@H](OC2[C@@H](O)[C@H](O)C(O)[C@H](O)[C@@H]2O)[C@H](O)[C@@H](O)[C@H]1O (stereo partly specified) [Galactinol] | – | – | collision cross section (N2) ([M+Na-2H]-): 168.98 Å²; collision cross section (N2) ([M+Na]+): 177.7 Å²
31 | CC(=O)OCC[N+](C)(C)C [Acetylcholine] | – | 129.7 | –
32 | CC1=C(CCC(=O)O)c2cc3nc(cc4[nH]c(cc5[nH]c(cc1n2)c(C)c5CCC(=O)O)c(CCC(=O)O)c4C)C(CCC(=O)O)=C3C [Coproporphyrin III] | 271.13 | 257.2 | –
33 | CNCC(O)c1ccc(O)cc1 (stereo unspecified) [Synephrine] | – | – | collision cross section (N2) ([M+H-H2O]+): 134.4 Å²
34 | O=c1nc[nH]c2c1ncn2[C@H]1C[C@H](O)[C@@H](CO)O1 [Deoxyinosine] | 153.4 | 151.7 | –
35 | Nc1ncnc2c1ncn2[C@H]1C[C@H](O)[C@@H](CO)O1 [Deoxyadenosine] | 152.2 | 152.3 | –
36 | O=C(O)C(CO)OP(=O)(O)O (racemic) [DL-2-Phosphoglycerate] | – | – | collision cross section (N2) ([M+Na]+): 141.8 Å²
37 | O=P(O)(O)OC[C@H]1O[C@](O)(CO)[C@@H](O)[C@@H]1O [Beta-D-Fructose 6-phosphate] | 141.02 | 149.3 | –
38 | NC(Cc1cc(I)c(Oc2ccc(O)cc2)c(I)c1)C(=O)O (stereo unspecified) [3,5-Diiodothyronine] | 186.44 | 198.2 | –
39 | Nc1ncnc2c1ncn2[C@@H]1O[C@H](COP(=O)(O)OS(=O)(=O)O)[C@@H](O)[C@H]1O [Adenosine 5'-phosphosulfate] | 180.48 | – | collision cross section (N2) ([M+Na]+): 190.4 Å²
40 | CC/C=C\C/C=C\C/C=C\C/C=C\C/C=C\CCCC(=O)O [Eicosapentaenoic acid] | 178.53 | – | –
41 | CCCCC[C@H](O)/C=C/[C@H]1[C@H](O)CC(=O)[C@@H]1CCCCCCC(=O)O [Prostaglandin E1] | – | – | collision cross section (N2) ([M+Na]+): 198.3 Å²; collision cross section (N2) ([M-H2O-H]-): 181.94 Å²
42 | O=C1O[C@H](CO)[C@@H](O)[C@H](O)[C@H]1O [D-Glucono-1,5-lactone] | 130.59 | – | –
43 | C[N+](C)(C)CC=O [Betaine aldehyde] | – | 117.2 | –
44 | Cn1c(=O)[nH]c2[nH]c(=O)[nH]c(=O)c21 [7-Methyluric acid] | 129.35 | – | –
45 | O=P(O)(O)OC[C@H]1O[C@@H](O)C[C@@H]1O [Deoxyribose 5-phosphate] | – | – | collision cross section (N2) ([M+Na]+): 148.4 Å²

Source: the C3SDB collision cross section collection
